{"source": "patent US8691586B2", "about": "(priority 2006, dated 2014)", "key": {"[1]": {"target": "αHL pore (Staphylococcus aureus, UniProt P09616)", "sequence (P09616 27-319 limits assumed)": "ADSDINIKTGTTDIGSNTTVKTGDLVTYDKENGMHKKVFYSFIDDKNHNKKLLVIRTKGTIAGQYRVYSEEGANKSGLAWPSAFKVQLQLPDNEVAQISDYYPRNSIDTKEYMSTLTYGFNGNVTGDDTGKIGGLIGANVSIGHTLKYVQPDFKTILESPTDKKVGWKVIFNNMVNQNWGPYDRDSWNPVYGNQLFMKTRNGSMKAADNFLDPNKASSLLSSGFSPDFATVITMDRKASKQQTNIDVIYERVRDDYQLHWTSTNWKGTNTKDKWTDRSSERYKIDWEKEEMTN", "assay_type": "biochemical, staphylococcal"}, "[2]": {"target": "WT αHL (Staphylococcus aureus, UniProt P09616)", "sequence (P09616 27-319 limits assumed)": "as above", "assay_type": "biochemical, staphylococcal", "conditions": "pH 7"}, "[3]": {"target": "wild-type (WT) staphylococcal α-hemolysin (αHL) heptamer (Staphylococcus aureus, UniProt P09616)", "sequence (P09616 27-319 limits assumed)": "as above", "assay_type": "biochemical", "conditions": "pH 7"}}, "data": [{"substance": "γ-cyclodextrin [γCD]", "values": [{"measurement": "residence time (toff)", "setting": "[1]", "value": "421 ± 22", "unit": "ms"}, {"measurement": "ionic current blocked by transient binding to an αHL pore", "setting": "[2]", "value": "around 60%"}, {"measurement": "residence time (toff) for γCD bound to the αHL pore", "setting": "[3]", "value": "495 ± 51", "unit": "ms"}]}]}
